Laboratory results from patent publication US12534439B2, “Xanthohumol derivatives and methods for making and using” (Oregon State University, priority 2021, dated 2026).

Test system: HFD-fed C57BL/6J mice
Assay: Untargeted cortex LC-MS metabolomics
Type: in vivo
Conditions: cortex of HFD-fed mice
Method: Plasma and Cortex LC-MS Metabolomics. The left and right sides of the cortex were pooled and ground using liquid nitrogen. Cortex samples (approximately 30 mg) were extracted as previously described with slight modifications. Tissues were homogenized with 600 μL of cold 80% acetonitrile with 0.1% formic acid containing 0.2 μg/mL of dopamine-d4 (Sigma-Aldrich, St Louis, MO, USA) and 0.2 μg/mL of chlorpropamide (Sigma-Aldrich, St Louis, MO, USA) using a counter-top bullet blender for 2 min and centrifuged at 20 000 rpm for 10 minutes. Supernatants were transferred to high performance liquid chromatography (HPLC) vials for analysis.
LC-high-resolution mass spectrometry/MS. Data dependent acquisition in both negative and positive ion mode was conducted using a Shimadzu Nexera UPLC system coupled to an AB SCIEX TripleTOF 5600 mass spectrometer (AB SCIEX, Toronto, Canada). Chromatographic separation was conducted using an Inertsil Phenyl-3 column (4.6×150 mm, 100 Å, 5 μm; GL Sciences, Tokyo, Japan). Spray voltage was −4200 V for negative ion mode and 4500 V for positive ion mode acquisition. The injection volume was 3 μL. Metabolite identifications were performed using Progenesis QI software (V2.4.6911) with METLIN plugin V1.0.6499 (NonLinear Dynamics, United Kingdom). Progenesis QI was used for peak picking, retention time correction, data normalization, peak alignment, and metabolite annotations. Metabolites were detected in both ion modes; the one with the lowest coefficient of variation of the QC was kept.

In the case of `COc1cc(O)c(CC=C(C)C)c(O)c1C(=O)/C=C/c1ccc(O)cc1` [XN, xanthohumol], the “Ion intensities, Mean: 1,2-DIPALMITOYL-SN-GLYCEROL” value is reported as 934.62, the “Ion intensities, Mean: 1-Arachidonoyl-glycerophosphoinositol” value is reported as 645.87 and the “Ion intensities, Mean: 1-Palmitoyl-2-linoleoyl PE” value is reported as 1782.31. For the same molecule, the “Ion intensities, Mean: 2-Pyrrolidinone” value was 1091.46, the “Ion intensities, Mean: 2′-DEOXYURIDINE 5′-MONOPHOSPHATE” value was 615.86 and the “Ion intensities, Mean: 3-Methyl-L-histidine” value was 495.48. The “Ion intensities, Mean: 3-PHOSPHO-GLYCERIC ACID” value was 2094.74, the “Ion intensities, Mean: 5-Acetylamino-6-amino-3-methyluracil” value was 108.09 and the “Ion intensities, Mean: 5-Methylcytidine” value was 6615.71. For the same molecule, the “Ion intensities, Mean: 12-HYDROXYDODECANOIC-ACID” value was 2479.58, the “Ion intensities, Mean: 20-Hydroxy-PGE2” value was 9703.49 and the “Ion intensities, Mean: 27-Hydroxycholesterol” value was 17882.79. The “Ion intensities, Mean: ADENOSINE” value was 42044.83, the “Ion intensities, Mean: ADENOSINE 5′-DIPHOSPHORIBOSE” value was 2010.85 and the “Ion intensities, Mean: ADENOSINE 5′-MONOPHOSPHATE” value was 75745.39. The “Ion intensities, Mean: ADENOSINE-5′-DIPHOSPHOGLUCOSE” value was 924.21, the “Ion intensities, Mean: ADP” value was 1070.27 and the “Ion intensities, Mean: AMINOADIPATE” value was 211.18. For the same molecule, the “Ion intensities, Mean: ASCORBATE” value was 2138.35, the “Ion intensities, Mean: ASPARTATE” value was 1174.88 and the “Ion intensities, Mean: Acetylcarnitine” value was 11173.39. The “Ion intensities, Mean: Acetylcholine” value was 1788.61, the “Ion intensities, Mean: Adenine” value was 1575.62 and the “Ion intensities, Mean: Adenylosuccinate” value was 482.18. For the same molecule, the “Ion intensities, Mean: Adenylsuccinic acid” value was 1871.57, the “Ion intensities, Mean: Arachidonic acid” value was 25496.26 and the “Ion intensities, Mean: Arachidonic acid ethyl ester” value was 417.92. For the same molecule, the “Ion intensities, Mean: Arginine” value was 1863.90, the “Ion intensities, Mean: Aspartic acid” value was 8381.28 and the “Ion intensities, Mean: BILIVERDIN” value was 251.38. For the same molecule, the “Ion intensities, Mean: CARNITINE” value was 11992.59, the “Ion intensities, Mean: CDP-Ethanolamine” value was 303.02 and the “Ion intensities, Mean: CHENODEOXYCHOLATE” value was 5290.32. For the same molecule, the “Ion intensities, Mean: CITRATE” value was 997.79, the “Ion intensities, Mean: CMP” value was 586.09 and the “Ion intensities, Mean: Carnosine” value was 929.30. The “Ion intensities, Mean: Choline” value was 7326.72, the “Ion intensities, Mean: Creatine” value was 81660.56 and the “Ion intensities, Mean: Cysteineglutathione disulfide” value was 1321.30. For the same molecule, the “Ion intensities, Mean: Cytidine” value was 766.86, the “Ion intensities, Mean: Cytidine 2′,3′-cyclic phosphate” value was 419.79 and the “Ion intensities, Mean: Cytidine diphosphate choline (CDPcholine)” value was 2132.21. The “Ion intensities, Mean: D-GLUCOSE 6-PHOSPHATE” value was 54.37, the “Ion intensities, Mean: D-Glucaro-1,4-lactone” value was 1852.68 and the “Ion intensities, Mean: D-RIBOSE 5-PHOSPHATE” value was 119.65. The “Ion intensities, Mean: DESMOSTEROL” value was 16777.33, the “Ion intensities, Mean: DIHYDROOROTATE” value was 129.45 and the “Ion intensities, Mean: Deoxycytidine” value was 405.53. For the same molecule, the “Ion intensities, Mean: Deoxyguanosine” value was 2552.08, the “Ion intensities, Mean: Docosahexaenoic acid” value was 3528.63 and the “Ion intensities, Mean: Docosenamide” value was 22701.50. The “Ion intensities, Mean: Dodecanedioic acid” value was 332.32, the “Ion intensities, Mean: ERUCIC ACID” value was 114.42 and the “Ion intensities, Mean: ETHANOLAMINE PHOSPHATE” value was 361.87. For the same molecule, the “Ion intensities, Mean: Ergothioneine” value was 433.26, the “Ion intensities, Mean: Ethyl nicotinate” value was 74.78 and the “Ion intensities, Mean: GLUTAMIC ACID” value was 7047.98. For the same molecule, the “Ion intensities, Mean: GLUTAMINE” value was 18241.11, the “Ion intensities, Mean: GUANOSINE 5′-MONOPHOSPHATE” value was 2052.93 and the “Ion intensities, Mean: Glutamate” value was 45779.91. The “Ion intensities, Mean: Glutathione” value was 194624.55, the “Ion intensities, Mean: Glycerophosphocholine” value was 104911.40 and the “Ion intensities, Mean: Guanosine monophosphate” value was 482.20. The “Ion intensities, Mean: HEPTADECANOATE” value was 24.77, the “Ion intensities, Mean: HISTIDINE” value was 901.19 and the “Ion intensities, Mean: Homocarnosine” value was 433.96. The “Ion intensities, Mean: Homoserine” value was 952.74, the “Ion intensities, Mean: Hydroxybutyric acid” value was 2561.64 and the “Ion intensities, Mean: Hydroxyphenethylamine” value was 3489.46. The “Ion intensities, Mean: Hypoxanthine” value was 100.45, the “Ion intensities, Mean: Hypusine” value was 94.62 and the “Ion intensities, Mean: ISOCITRIC ACID” value was 2099.31. For the same molecule, the “Ion intensities, Mean: ISOLEUCINE” value was 1271.60, the “Ion intensities, Mean: Indoleacetaldehyde” value was 565.25 and the “Ion intensities, Mean: Inosine” value was 1426.47. For the same molecule, the “Ion intensities, Mean: Inosine 5′-monophosphate (IMP)” value was 3551.74, the “Ion intensities, Mean: Isostearic acid” value was 2314.30 and the “Ion intensities, Mean: L-2-Amino-5-hydroxypentanoicacid” value was 1771.05. For the same molecule, the “Ion intensities, Mean: L-OLEOYL-RAC-GLYCEROL” value was 3415.51, the “Ion intensities, Mean: LACTATE” value was 3374.25 and the “Ion intensities, Mean: LAUROYLCARNITINE” value was 384.69. For the same molecule, the “Ion intensities, Mean: LEUKOTRIENE B4” value was 49.50, the “Ion intensities, Mean: LYSINE” value was 51.50 and the “Ion intensities, Mean: Lathosterol” value was 23593.87. The “Ion intensities, Mean: Lipoamide” value was 70.91, the “Ion intensities, Mean: MALATE” value was 1271.76 and the “Ion intensities, Mean: Methionine” value was 1365.89. The “Ion intensities, Mean: Methylthioadenosine” value was 2473.94, the “Ion intensities, Mean: Myristoylcarnitine” value was 1742.03 and the “Ion intensities, Mean: N,N-dimethyl-Safingol” value was 638.46. The “Ion intensities, Mean: N-(1-Deoxy-1-fructosyl) serine” value was 3036.19, the “Ion intensities, Mean: N-ACETYL-L-ASPARTICACID” value was 24960.43 and the “Ion intensities, Mean: N-ACETYLNEURAMINATE” value was 817.62. The “Ion intensities, Mean: N-Acetyl-Glutamic acid” value was 154.68, the “Ion intensities, Mean: N-Acetyl-L-alanine” value was 1997.71 and the “Ion intensities, Mean: N-Acetylaspartylglutamic acid” value was 2179.47. The “Ion intensities, Mean: N-Acetylglutamine” value was 273.18, the “Ion intensities, Mean: N-Acetylisoputreanine” value was 99.54 and the “Ion intensities, Mean: N-Acetyllactosamine” value was 308.43. The “Ion intensities, Mean: N-Linoleoyl GABA” value was 57.01, the “Ion intensities, Mean: N-Methyl-Glutamate” value was 2277.43 and the “Ion intensities, Mean: N-a-Acetyl-Arginine” value was 175.03. For the same molecule, the “Ion intensities, Mean: NAD” value was 532.29, the “Ion intensities, Mean: NE,NE,NE-TRIMETHYLLYSINE” value was 2830.12 and the “Ion intensities, Mean: Niacinamide” value was 4607.66. For the same molecule, the “Ion intensities, Mean: Nicotinamide adenine dinucleotide (NAD)” value was 2094413, the “Ion intensities, Mean: O-Phosphoethanolamine” value was 497.23 and the “Ion intensities, Mean: Octadecenoic acid” value was 202.97. The “Ion intensities, Mean: Oleamide” value was 4025.45, the “Ion intensities, Mean: Oxidized glutathione” value was 2115.40 and the “Ion intensities, Mean: PALMITATE” value was 1472.32. For the same molecule, the “Ion intensities, Mean: PALMITOLEIC ACID” value was 62.02, the “Ion intensities, Mean: PANTOTHENIC ACID” value was 442.74 and the “Ion intensities, Mean: PETROSELINIC ACID” value was 220.71. For the same molecule, the “Ion intensities, Mean: PHENYLALANINE” value was 2371.34, the “Ion intensities, Mean: PHENYLETHANOLAMINE” value was 1245.94 and the “Ion intensities, Mean: Phenylpropionylglycine” value was 294.60. For the same molecule, the “Ion intensities, Mean: Phosphocholine” value was 18574.78, the “Ion intensities, Mean: Phosphodimethyl-ethanolamine” value was 161.80 and the “Ion intensities, Mean: Pipecolic acid” value was 422.43. The “Ion intensities, Mean: Propionylcarnitine” value was 571.28, the “Ion intensities, Mean: Pyridoxamine-5′-Phosphate” value was 377.92 and the “Ion intensities, Mean: RAC-GLYCEROL-L-MYRISTATE” value was 293.55. For the same molecule, the “Ion intensities, Mean: S-Adenosylhomocysteine” value was 397.04, the “Ion intensities, Mean: S-Adenosylmethionine” value was 11562.08 and the “Ion intensities, Mean: SERINE” value was 355.32. For the same molecule, the “Ion intensities, Mean: SUCCINATE” value was 362.22, the “Ion intensities, Mean: Spermic acid 1” value was 178.91 and the “Ion intensities, Mean: Spermidine” value was 5406.36. The “Ion intensities, Mean: Sphinganine” value was 34.01, the “Ion intensities, Mean: Sphinganine 1-phosphate” value was 2568.50 and the “Ion intensities, Mean: Sphingosine” value was 1322.46. For the same molecule, the “Ion intensities, Mean: Stearoylglycerophosphoserine” value was 2006.21, the “Ion intensities, Mean: Succinyladenosine” value was 192.45 and the “Ion intensities, Mean: TAURINE” value was 6070.22. The “Ion intensities, Mean: THEOPHYLLINE” value was 18.71, the “Ion intensities, Mean: TRYPTOPHAN” value was 1131.43 and the “Ion intensities, Mean: Tetradecanedioic acid” value was 125.75. For the same molecule, the “Ion intensities, Mean: Tetrahydrodeoxycortisol” value was 3344.70, the “Ion intensities, Mean: Threoninyl-Alanine” value was 227.23 and the “Ion intensities, Mean: Tyrosine” value was 4311.01. For the same molecule, the “Ion intensities, Mean: URIDINE” value was 1155.56, the “Ion intensities, Mean: URIDINE 5′-DIPHOSPHOGALACTOSE” value was 462.04 and the “Ion intensities, Mean: URIDINE-5-MONOPHOSPHATE” value was 2103.27. For the same molecule, the “Ion intensities, Mean: Undecanedicarboxylic acid” value was 236.12, the “Ion intensities, Mean: Uracil” value was 201.36 and the “Ion intensities, Mean: Uridine 5′-diphosphate” value was 248.01. For the same molecule, the “Ion intensities, Mean: Xanthine” value was 137.03, the “Ion intensities, Mean: cyclic GMP-AMP” value was 1495.60 and the “Ion intensities, Mean: diethyltoluamide” value was 8.44. The “Ion intensities, Mean: docosa-hexaenoic acid” value was 3095.80, the “Ion intensities, Mean: hydroxyhexadecanoyl carnitine” value was 1430.92 and the “Ion intensities, Mean: hydroxyvitamin D3” value was 16859.40. The “Ion intensities, Mean: sn-glycero-3-Phosphoethanolamine” value was 737.74.
